From patent US9296723B2, “NAMPT inhibitors” (AbbVie Inc., priority 2012, dated 2016)

Assays:
NAMPT [1] = molecular target: T1, NAMPT (Homo sapiens, UniProt P43490); experiment: Time-Resolved Fluorescence Resonance Energy Transfer (TR-FRET) Binding Assay of NAMPT; conditions: 6.8 nM NAMPT, 200 nM probe, equilibrated 3 hours, no substrates
How it was run: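 Compound was mixed with enzyme, probe and antibody and equilibrated 3 h at room temperature. TR-FRET read at Ex 337 nm, Em 520/495 nm. Ratios were normalized to controls and fitted to a four-parameter logistic equation for IC50.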

NAMPT [2] = molecular target: T1, NAMPT; experiment: TR-FRET Binding Assay of NAMPT with PRPP; conditions: 2 nM NAMPT, 2 nM probe, 200 µM PRPP and 2.5 mM ATP, equilibrated 16 hours
How it was run: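 TR-FRET probe displacement with 2 nM NAMPT, 2 nM probe and 1 nM Tb-anti-His antibody in the presence of 200 µM PRPP and 2.5 mM ATP, 2% DMSO (all final). Equilibrated 16 hours before reading to permit possible enzymatic modification of compounds.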

PC3 cells = experiment: NAMPT Cell Proliferation Assay (Cell Titer Glo); assay type: cell-based; conditions: Homo sapiens, PC-3, 120 h, incubated 5 days, cell viability
How it was run: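 PC3 cells (500/well, RPMI with 10% heat-inactivated FBS) were exposed to 10-fold compound dilutions from […] for 5 days at 37 °C, 5% CO2. Viability was read with Cell Titer Glo; IC50 from sigmoidal fit of percent inhibition.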

T1 sequence (P43490 whole entry): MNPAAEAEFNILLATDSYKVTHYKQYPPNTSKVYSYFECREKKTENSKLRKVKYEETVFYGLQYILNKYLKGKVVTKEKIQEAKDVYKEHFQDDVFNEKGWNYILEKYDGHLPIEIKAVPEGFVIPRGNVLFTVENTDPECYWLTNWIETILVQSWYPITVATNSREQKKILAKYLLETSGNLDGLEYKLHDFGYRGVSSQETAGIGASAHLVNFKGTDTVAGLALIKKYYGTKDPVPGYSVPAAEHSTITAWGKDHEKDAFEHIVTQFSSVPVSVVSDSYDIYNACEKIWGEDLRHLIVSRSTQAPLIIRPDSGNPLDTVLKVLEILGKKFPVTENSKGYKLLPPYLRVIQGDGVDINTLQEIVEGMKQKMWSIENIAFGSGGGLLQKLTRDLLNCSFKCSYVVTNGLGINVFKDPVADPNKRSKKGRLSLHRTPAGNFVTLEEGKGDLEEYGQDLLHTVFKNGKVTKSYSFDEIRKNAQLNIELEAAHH

| IC50 (NAMPT [1]) [nM] | IC50 (NAMPT [2]) [nM] | IC50 (PC3 cells) [nM] | Compound |
| --- | --- | --- | --- |
| 15 | 0.544 | 7.42 | CCCC(C)C(=O)N1CC(Oc2ccc(NC(=O)N3CC(c4cccnc4)C3)cc2)C1 (stereo not drawn) [Example 136, N-(4-{[1-(2-methylpentanoyl)azetidin-3-yl]oxy}phenyl)-3-(pyridin-3-yl)azetidine-1-carboxamide] |
| 98.8 | 0.44 | 51.6 | CC(=O)N1CC(Oc2ccc(NC(=O)N3CC(c4cccnc4)C3)cc2)C1 [Example 137, N-{4-[(1-acetylazetidin-3-yl)oxy]phenyl}-3-(pyridin-3-yl)azetidine-1-carboxamide] |
| 11.4 | 0.596 | 8.38 | O=C(CC1CCCCC1)N1CC(Oc2ccc(NC(=O)N3CC(c4cccnc4)C3)cc2)C1 [Example 138, N-(4-{[1-(cyclohexylacetyl)azetidin-3-yl]oxy}phenyl)-3-(pyridin-3-yl)azetidine-1-carboxamide] |
| 14.4 | 0.442 | 7.81 | O=C(Nc1ccc(OC2CN(C(=O)C3CCCCC3)C2)cc1)N1CC(c2cccnc2)C1 [Example 139, N-(4-{[1-(cyclohexylcarbonyl)azetidin-3-yl]oxy}phenyl)-3-(pyridin-3-yl)azetidine-1-carboxamide] |
| 43 | 0.181 | 26.3 | O=C(Nc1ccc(OC2CN(C(=O)C3CC3)C2)cc1)N1CC(c2cccnc2)C1 [Example 140, N-(4-{[1-(cyclopropylcarbonyl)azetidin-3-yl]oxy}phenyl)-3-(pyridin-3-yl)azetidine-1-carboxamide] |
| 17.6 | 0.249 | 8.33 | O=C(Nc1ccc(OC2CN(C(=O)c3cccs3)C2)cc1)N1CC(c2cccnc2)C1 [Example 141, 3-(pyridin-3-yl)-N-(4-{[1-(thiophen-2-ylcarbonyl)azetidin-3-yl]oxy}phenyl)azetidine-1-carboxamide] |
| 24.6 | 0.339 | 7.91 | O=C(Nc1ccc(OC2CN(C(=O)C3CCCC3)C2)cc1)N1CC(c2cccnc2)C1 [Example 142, N-(4-{[1-(cyclopentylcarbonyl)azetidin-3-yl]oxy}phenyl)-3-(pyridin-3-yl)azetidine-1-carboxamide] |
| 136 | 0.763 | 82.2 | O=C(CN1CCOCC1)N1CC(Oc2ccc(NC(=O)N3CC(c4cccnc4)C3)cc2)C1 [Example 143, N-(4-{[1-(morpholin-4-ylacetyl)azetidin-3-yl]oxy}phenyl)-3-(pyridin-3-yl)azetidine-1-carboxamide] |
| 25.6 | 0.313 | 9.04 | O=C(Nc1ccc(OC2CN(C(=O)c3cncs3)C2)cc1)N1CC(c2cccnc2)C1 [Example 144, 3-(pyridin-3-yl)-N-(4-{[1-(1,3-thiazol-5-ylcarbonyl)azetidin-3-yl]oxy}phenyl)azetidine-1-carboxamide] |
| 90.5 | 0.6 | 73.9 | Cc1noc(C)c1C(=O)N1CC(Oc2ccc(NC(=O)N3CC(c4cccnc4)C3)cc2)C1 [Example 145, N-[4-({1-[(3,5-dimethyl-1,2-oxazol-4-yl)carbonyl]azetidin-3-yl}oxy)phenyl]-3-(pyridin-3-yl)azetidine-1-carboxamide] |
| 15.1 | 0.27 | 9.07 | O=C(Nc1ccc(OC2CN(C(=O)c3ccsc3)C2)cc1)N1CC(c2cccnc2)C1 [Example 146, 3-(pyridin-3-yl)-N-(4-{[1-(thiophen-3-ylcarbonyl)azetidin-3-yl]oxy}phenyl)azetidine-1-carboxamide] |
| 27.7 | 0.321 | 16.7 | O=C(Nc1ccc(OC2CN(C(=O)c3ccno3)C2)cc1)N1CC(c2cccnc2)C1 [Example 148, N-(4-{[1-(1,2-oxazol-5-ylcarbonyl)azetidin-3-yl]oxy}phenyl)-3-(pyridin-3-yl)azetidine-1-carboxamide] |
| 22.1 | 0.219 | 76.5 | CN1CCN(CC(=O)N2CC(Oc3ccc(NC(=O)N4CC(c5cccnc5)C4)cc3)C2)CC1 [Example 149, N-[4-({1-[(4-methylpiperazin-1-yl)acetyl]azetidin-3-yl}oxy)phenyl]-3-(pyridin-3-yl)azetidine-1-carboxamide] |
| 435 | 2.85 | 1050 | CN(C)CCC(=O)N1CC(Oc2ccc(NC(=O)N3CC(c4cccnc4)C3)cc2)C1 [Example 150, N-(4-{[1-(N,N-dimethyl-beta-alanyl)azetidin-3-yl]oxy}phenyl)-3-(pyridin-3-yl)azetidine-1-carboxamide] |
| 5.18 | 0.42 | 6.04 | CC1(C(=O)N2CC(Oc3ccc(NC(=O)N4CC(c5cccnc5)C4)cc3)C2)CCCCC1 [Example 152, N-[4-({1-[(1-methylcyclohexyl)carbonyl]azetidin-3-yl}oxy)phenyl]-3-(pyridin-3-yl)azetidine-1-carboxamide] |
| 12.4 | 0.436 | 8.03 | O=C(CC1CCCC1)N1CC(Oc2ccc(NC(=O)N3CC(c4cccnc4)C3)cc2)C1 [Example 153, N-(4-{[1-(cyclopentylacetyl)azetidin-3-yl]oxy}phenyl)-3-(pyridin-3-yl)azetidine-1-carboxamide] |
| 399 | 0.425 | 130 | O=C(CN1CCCC1)N1CC(Oc2ccc(NC(=O)N3CC(c4cccnc4)C3)cc2)C1 [Example 155, 3-(pyridin-3-yl)-N-(4-{[1-(pyrrolidin-1-ylacetyl)azetidin-3-yl]oxy}phenyl)azetidine-1-carboxamide] |
| 2.71 | 0.237 | 74.7 | CC(C)(O)C(=O)N1CCC(c2ccc(NC(=O)N3CC(c4cccnc4F)C3)cc2)CC1 [Example 156, 3-(2-fluoropyridin-3-yl)-N-{4-[1-(2-hydroxy-2-methylpropanoyl)piperidin-4-yl]phenyl}azetidine-1-carboxamide] |
| 8.62 | 5.79 | 905 | CC(C)(O)C(=O)N1CCC(c2ccc(NC(=O)N3CC(c4cccnc4Cl)C3)cc2)CC1 [Example 161, 3-(2-chloropyridin-3-yl)-N-{4-[1-(2-hydroxy-2-methylpropanoyl)piperidin-4-yl]phenyl}azetidine-1-carboxamide] |
| 357 | 0.574 | 269 | O=C(CC1CCOCC1)N1CCC(Oc2ccc(NC(=O)N3CCN(c4cccnc4)CC3)cc2)CC1 [Example 162, 4-(pyridin-3-yl)-N-(4-{[1-(tetrahydro-2H-pyran-4-ylacetyl)piperidin-4-yl]oxy}phenyl)piperazine-1-carboxamide] |
| 7.23 | 0.295 | 34.4 | CCCCC(=O)N1CCC(c2ccc(NC(=O)N3CC(c4cccnc4)C3)cc2)CC1 [Example 163, N-[4-(1-pentanoylpiperidin-4-yl)phenyl]-3-(pyridin-3-yl)azetidine-1-carboxamide] |
| 15.9 | 0.313 | 25.9 | CC1CC1C(=O)N1CCC(c2ccc(NC(=O)N3CC(c4cccnc4)C3)cc2)CC1 (stereo not drawn) [Example 164, N-(4-{1-[(2-methylcyclopropyl)carbonyl]piperidin-4-yl}phenyl)-3-(pyridin-3-yl)azetidine-1-carboxamide] |
| 14.4 | 0.389 | 61.9 | O=C(CC1C[C@@H]2CC[C@H]1C2)N1CCC(c2ccc(NC(=O)N3CC(c4cccnc4)C3)cc2)CC1 (stereo partly drawn) [Example 165, N-(4-{1-[(1S,4R)-bicyclo[2.2.1]hept-2-ylacetyl]piperidin-4-yl}phenyl)-3-(pyridin-3-yl)azetidine-1-carboxamide] |
| 17.2 | 0.337 | 66.4 | CC(C)CCC(=O)N1CCC(c2ccc(NC(=O)N3CC(c4cccnc4)C3)cc2)CC1 [Example 166, N-{4-[1-(4-methylpentanoyl)piperidin-4-yl]phenyl}-3-(pyridin-3-yl)azetidine-1-carboxamide] |
| 8.41 | 0.319 | 23.5 | CCC(C)CC(=O)N1CCC(c2ccc(NC(=O)N3CC(c4cccnc4)C3)cc2)CC1 (stereo not drawn) [Example 167, N-{4-[1-(3-methylpentanoyl)piperidin-4-yl]phenyl}-3-(pyridin-3-yl)azetidine-1-carboxamide] |
| 28.9 | 0.503 | 45 | CCOCCC(=O)N1CCC(c2ccc(NC(=O)N3CC(c4cccnc4)C3)cc2)CC1 [Example 168, N-{4-[1-(3-ethoxypropanoyl)piperidin-4-yl]phenyl}-3-(pyridin-3-yl)azetidine-1-carboxamide] |
| 5.36 | 0.304 | 7.98 | CCC(C)(C)C(=O)N1CCC(c2ccc(NC(=O)N3CC(c4cccnc4)C3)cc2)CC1 [Example 169, N-{4-[1-(2,2-dimethylbutanoyl)piperidin-4-yl]phenyl}-3-(pyridin-3-yl)azetidine-1-carboxamide] |
| 7.07 | 0.364 | 14.8 | CC(C)(C)CC(=O)N1CCC(c2ccc(NC(=O)N3CC(c4cccnc4)C3)cc2)CC1 [Example 170, N-{4-[1-(3,3-dimethylbutanoyl)piperidin-4-yl]phenyl}-3-(pyridin-3-yl)azetidine-1-carboxamide] |
| 8.74 | 0.231 | 22 | CC(C)(C)C(=O)N1CCC(c2ccc(NC(=O)N3CC(c4cccnc4)C3)cc2)CC1 [Example 171, N-{4-[1-(2,2-dimethylpropanoyl)piperidin-4-yl]phenyl}-3-(pyridin-3-yl)azetidine-1-carboxamide] |
